Experimental data published in the CheMixHub ionic liquid set.

Test: xn = mol fraction of the nth substance listed

N#C[N-]S(=O)(=O)C(F)(F)F.[Li+] + CCCC[N+]1(C)CCCC1.N#C[N-]S(=O)(=O)C(F)(F)F
101 kPa, frequency 0 MHz
Conditions | electrical conductivity [S/m]
303 K, x1 = 0.1 | 0.295
318 K, x1 = 0.2 | 0.194
323 K, x1 = 0.05 | 0.706
323 K, x1 = 0.1 | 0.558

101 kPa
Conditions | viscosity [mPa·s]
303 K, x1 = 0.1 | 89.5
318 K, x1 = 0.2 | 150
323 K, x1 = 0.05 | 30.3
323 K, x1 = 0.1 | 43.5
328 K, x1 = 0.1 | 34.6

O=S(=O)([N-]S(=O)(=O)C(F)(F)F)C(F)(F)F.[Na+] + CCCC[N+]1(C)CCCC1.O=S(=O)([N-]S(=O)(=O)C(F)(F)F)C(F)(F)F
100 kPa, x1 = 0.24
Conditions | electrical conductivity [S/m]
280.2 K | 0.013
338.7 K | 0.409
347.4 K | 0.521
400.6 K | 1.83

O=Cc1ccco1 + CCCC[P+](C)(CCCC)CCCC.COS(=O)(=O)[O-]
100 kPa
Conditions | viscosity [mPa·s]
293.15 K, x2 = 0.1 | 9
293.15 K, x2 = 0.191 | 41
293.15 K, x2 = 0.624 | 270
298.15 K, x2 = 0.062 | 2.33
298.15 K, x2 = 0.1 | 3.5
303.15 K, x2 = 0.191 | 6.7
303.15 K, x2 = 0.732 | 182
308.15 K, x2 = 0.142 | 4
308.15 K, x2 = 0.317 | 12.6
308.15 K, x2 = 0.624 | 58
313.15 K, x2 = 0 | 1.17
313.15 K, x2 = 0.1 | 2.6
318.15 K, x2 = 0.062 | 1.64
318.15 K, x2 = 0.142 | 3.5
318.15 K, x2 = 0.249 | 5.7
318.15 K, x2 = 0.499 | 20.5
323.15 K, x2 = 0.191 | 4
323.15 K, x2 = 0.249 | 4.7

CC(C)O + CCCC[n+]1ccn(C)c1.F[B-](F)(F)F
101 kPa, x2 = 0
Conditions | viscosity [mPa·s]
293.15 K | 2.42
298.15 K | 2.08
303.15 K | 1.8
308.15 K | 1.56
313.15 K | 1.36
318.15 K | 1.19
323.15 K | 1.05

CCCC[n+]1ccn(C)c1.[Cl-] + CCCC[n+]1ccn(C)c1.F[B-](F)(F)F
Conditions | viscosity [mPa·s]
293 K, 101 kPa, x1 = 0.1015 | 201

ClC(Cl)Cl + CCCC[n+]1ccn(C)c1.F[B-](F)(F)F
298.15 K, 101 kPa
Conditions | electrical conductivity [S/m] | viscosity [mPa·s]
x1 = 0.1079 | 0.245 | 92
x1 = 0.2033 | 0.29 | 73
x1 = 0.3071 | 0.347 | 55.5
x1 = 0.4018 | 0.411 | 40.8
x1 = 0.5052 | 0.498 | 27.1
x1 = 0.6091 | 0.586 | 16.3
x1 = 0.7028 | 0.676 | 9.2
x1 = 0.7825 | 0.668 | 5.01
x1 = 0.8491 | 0.54 | 2.99

CCCC[n+]1ccn(C)c1.O=S(=O)([O-])C(F)(F)F + CCCC[n+]1ccn(C)c1.F[P-](F)(F)(F)(F)F
100 kPa
Conditions | viscosity [mPa·s]
293.15 K, x2 = 0.006063 | 91.5
293.15 K, x2 = 0.15 | 109.5
293.15 K, x2 = 0.1999 | 116.6
293.15 K, x2 = 0.7 | 218
298.15 K, x2 = 0.08059 | 83.4
303.15 K, x2 = 0.08059 | 69.3
303.15 K, x2 = 0.1 | 70.8
308.15 K, x2 = 0.15 | 60
308.15 K, x2 = 0.1999 | 63.1
313.15 K, x2 = 0.1999 | 50.6
313.15 K, x2 = 0.5002 | 66.8
313.15 K, x2 = 0.7995 | 88.2
318.15 K, x2 = 0.15 | 40
318.15 K, x2 = 0.1999 | 41.75
318.15 K, x2 = 0.3 | 45.51
318.15 K, x2 = 0.8997 | 76.3
323.15 K, x2 = 0.3 | 38.24
323.15 K, x2 = 0.8997 | 62.3
328.15 K, x2 = 0.15 | 29.81
328.15 K, x2 = 0.1999 | 30.97

F[P-](F)(F)(F)(F)F.[Li+] + CCCC[n+]1ccn(C)c1.N#C[N-]C#N
electrical conductivity [S/m], 101 kPa
Conditions | x2 = 0.8823 | x2 = 0.8953 | x2 = 0.9172 | x2 = 0.9531 | x2 = 0.9799
288.15 K | – | 0.307 | 0.39 | 0.482 | 0.585
298.15 K | 0.488 | 0.522 | 0.633 | 0.771 | 0.909
333.15 K | 1.63 | 1.68 | 1.97 | 2.24 | 2.58

CCCCO + CCCC[n+]1ccn(C)c1.N#C[S-]
101 kPa, x1 = 1
Conditions | viscosity [mPa·s]
328.15 K | 1.25
348.15 K | 0.846

[Cl-].[Li+] + CCCC[n+]1ccn(C)c1.N#C[S-] + CN1CCCC1=O
298.15 K, 101 kPa
Conditions | viscosity [mPa·s]
x2 = 0, x1 = 0.03819 | 2.63
x2 = 0, x1 = 0.07228 | 3.56
x2 = 0, x1 = 0.1042 | 4.958

CCCCO + CCCC[n+]1ccn(C)c1.O=S(=O)([N-]S(=O)(=O)C(F)(F)F)C(F)(F)F
Conditions | viscosity [mPa·s]
298 K, 100 kPa, x2 = 0 | 2.578

CCCC[n+]1ccn(C)c1.COP(=O)([O-])OC + CCCC[n+]1ccn(C)c1.O=S(=O)([N-]S(=O)(=O)C(F)(F)F)C(F)(F)F
Conditions | viscosity [mPa·s]
288.15 K, 100 kPa, x2 = 0 | 1455

O=C1CCCO1 + CCCC[n+]1ccn(C)c1.O=S(=O)([N-]S(=O)(=O)C(F)(F)F)C(F)(F)F
100 kPa
Conditions | electrical conductivity [S/m] | viscosity [mPa·s]
293.15 K, x1 = 0.2992 | 0.457 | 29.86
293.15 K, x1 = 0.8496 | 1.39 | –
293.15 K, x2 = 0.0151 | 0.411 | –
298.15 K, x1 = 0.5021 | 0.744 | 14.84
303.15 K, x1 = 0.2992 | 0.642 | 20.99
308.15 K, x1 = 0.5979 | 1.27 | 8.18
308.15 K, x1 = 0.7999 | 1.81 | 4.12
308.15 K, x1 = 0.8496 | 1.85 | –
308.15 K, x1 = 1 | 0.001 | 1.52
313.15 K, x1 = 0.1984 | 0.753 | 18.48
313.15 K, x1 = 0.5979 | 1.45 | 7.26
313.15 K, x1 = 0.95 | 1.42 | –
313.15 K, x1 = 1 | 0.001 | 1.42
313.15 K, x2 = 0.0151 | 0.542 | –
318.15 K, x1 = 0.7999 | 2.15 | 3.44
318.15 K, x1 = 0.8496 | 2.17 | –
318.15 K, x1 = 0.8995 | 2.02 | 2.35
318.15 K, x1 = 1 | 0.001 | 1.35
323.15 K, x1 = 0.7999 | 2.37 | 3.11
323.15 K, x1 = 1 | 0.002 | 1.3

CCCCO + CCCC[n+]1ccn(C)c1.O=S(=O)([O-])C(F)(F)F
100 kPa, x2 = 0
Conditions | viscosity [mPa·s]
298.15 K | 2.61
303.15 K | 2.31
308.15 K | 2.07
313.15 K | 1.85
318.15 K | 1.66
323.15 K | 1.5
